# Assay results taken from patent US20220143222A1, “SUBCUTANEOUS AND INTRAMUSCULAR ADMINISTRATION OF PYRAZINE COMPOUNDS” (MediBeacon Inc., priority 2020, published 2022).
# Where two headings read alike, the source gives them in different places.
# Assay: MB-102 pig plasma concentration after subcutaneous dosing
# Assay type: in vivo
# Details: 3.2 mpk; for concentration at 15 min / concentration at 30 min / concentration at 45 min / concentration at 60 min / concentration at 75 min / concentration at 90 min / concentration at 105 min / concentration at 120 min / concentration at 135 min / concentration at 150 min / concentration at 165 min / concentration at 180 min / concentration at 195 min / concentration at 210 min / concentration at 225 min / concentration at 240 min / concentration at 255 min / concentration at 270 min / concentration at 285 min / concentration at 300 min / concentration at 315 min / concentration at 330 min / concentration at 345 min / concentration at 360 min: Yorkshire, pig, plasma, subcutaneous, 3.2 mg/kg, read-out: MB-102 Pig Plasma Conc.; for SUM (plasma conc. over time): 15-360 min
# From the text: Juvenile Yorkshire pigs weighing approximately 25 kg were anesthetized, their body temperature stabilized, and an IV port surgically placed. A region approximately half-way along the line between the hip and knee joint was selected as the injection site and prepared by cleaning the skin and removing any exposed hair by shaving the selected area at least twice. Similarly, the site where two Quantum Leap fluorescent sensors (disclosed in U.S. Pat. No. 10,548,521) were to be positioned (chest) was prepared by washing and shaving. After the skin was dry the sensors were attached with commercially available skin adhesive and background skin auto-fluorescence measurements were recorded. After about 20 minutes of background fluorescence collection the subject animal was dosed either intravenously (animal 48019) or subcutaneously (animals 52771, 53701 09802, or 1539) or intramuscularly (09801) with PBS-1× formulated MB-102 at 3.2 mg/kg. Injection of the appropriate volume took place over about a minute. […] At this point glomerular elimination of MB-102 by the kidneys led to a decrease of fluorescence signal over time. Blood samples (1.5 mL) were taken immediately prior to the introduction of MB-102 (0 minutes) and at 15 minute intervals throughout the procedure. Blood was collected in BD vacutainer K2EDTA tubes, spun to plasma and stored at −80° C. until analyzed. Subsequently, the processed plasma samples were thawed, diluted with PBS-1× and analyzed by HPLC or UPLC and the concentration of MB-102 determined using standard analytical techniques. Further details for each animal are provided in the examples that follow.
# A sterile Mesoderm needle pack was obtained. The needle array featured five (5), 4 mm×30 gauge (0.30 mm dia) luer-hub needles arranged four (4) in a circular, symmetrical pattern (30 mm diameter) about a central needle and were attached via a distribution channel and a second luer-hub to a primary source syringe (3 mL in total deliverable volume). MB-102 API was formulated as 60 mg/mL of sodium salt in 1×PBS and placed in 5 mL serum cap vials. Immediately prior to dosing, the primary syringe was filled with a slight excess of the required amount of formulated MB-102 to achieve 3.2 mg/kg and the needle cap replaced until the subject animal and fluorescence monitor were ready for the experiment to begin and the injection initiated. Subject pig 52771 was dosed with 1.2 mL of MB-102 formulated in PBS-1× (3.2 mg/kg). […] Subject animal fluorescence was obtained during the entire course of the experiment (8 hrs) and blood samples were collected every 15 minutes, processed and stored at −80° C. Comparison of IV MB-102 plasma concentration versus time and subcutaneous MB-102 (both at 3.2 mg/kg dose) plasma concentration versus time are shown in FIG. 1.
# Experimental animal Yorkshire pig, 53701, was subject to subcutaneous (subQ) administration of MB-102 as described in Example 8. […] Plasma sampling was conducted as described in Example 8 and the results (Table 1) are plotted in FIG. 1.
# Experimental animal Yorkshire pig, 09802, was subject to subcutaneous (subQ) administration of MB-102 using a single needle in the same protocol as Example 8 but substituting a 2 mL syringe equipped with a single 4 mm×30 g needle. […] Plasma sampling was conducted as described in Example 8 and the results (Table 1) are plotted in FIG. 1.
smiles,measurement,setting,value
"Nc1nc(C(=O)N[C@H](CO)C(=O)O)c(N)nc1C(=O)N[C@H](CO)C(=O)O [MB-102, 3,6-diamino-2,5-bis{N-[(1R)-1-carboxy-2-hydroxyethyl]carbamoyl}pyrazine]",concentration at 15 min,"pig 09802, SubQ",6670 ng/mL
same,concentration at 30 min,"pig 09802, SubQ",7530 ng/mL
same,concentration at 45 min,"pig 09802, SubQ",6850 ng/mL
same,concentration at 60 min,"pig 09802, SubQ",6540 ng/mL
same,concentration at 75 min,"pig 09802, SubQ",5490 ng/mL
same,concentration at 90 min,"pig 09802, SubQ",5260 ng/mL
same,concentration at 105 min,"pig 09802, SubQ",4810 ng/mL
same,concentration at 120 min,"pig 09802, SubQ",4410 ng/mL
same,concentration at 135 min,"pig 09802, SubQ",3900 ng/mL
same,concentration at 150 min,"pig 09802, SubQ",3710 ng/mL
same,concentration at 165 min,"pig 09802, SubQ",3500 ng/mL
same,concentration at 180 min,"pig 09802, SubQ",3070 ng/mL
same,concentration at 195 min,"pig 09802, SubQ",2720 ng/mL
same,concentration at 210 min,"pig 09802, SubQ",2500 ng/mL
same,concentration at 225 min,"pig 09802, SubQ",2200 ng/mL
same,concentration at 240 min,"pig 09802, SubQ",1990 ng/mL
same,concentration at 255 min,"pig 09802, SubQ",1730 ng/mL
same,concentration at 270 min,"pig 09802, SubQ",1600 ng/mL
same,concentration at 285 min,"pig 09802, SubQ",1430 ng/mL
same,concentration at 300 min,"pig 09802, SubQ",1300 ng/mL
same,concentration at 315 min,"pig 09802, SubQ",1180 ng/mL
same,concentration at 330 min,"pig 09802, SubQ",1030 ng/mL
same,concentration at 345 min,"pig 09802, SubQ",914 ng/mL
same,concentration at 360 min,"pig 09802, SubQ",829 ng/mL
same,concentration at 15 min,"pig 52771, SubQ",6130 ng/mL
same,concentration at 30 min,"pig 52771, SubQ",8510 ng/mL
same,concentration at 45 min,"pig 52771, SubQ",8790 ng/mL
same,concentration at 60 min,"pig 52771, SubQ",8840 ng/mL
same,concentration at 75 min,"pig 52771, SubQ",7840 ng/mL
same,concentration at 90 min,"pig 52771, SubQ",6920 ng/mL
same,concentration at 105 min,"pig 52771, SubQ",6070 ng/mL
same,concentration at 120 min,"pig 52771, SubQ",5560 ng/mL
same,concentration at 135 min,"pig 52771, SubQ",5000 ng/mL
same,concentration at 150 min,"pig 52771, SubQ",4400 ng/mL
same,concentration at 165 min,"pig 52771, SubQ",3950 ng/mL
same,concentration at 180 min,"pig 52771, SubQ",3480 ng/mL
same,concentration at 195 min,"pig 52771, SubQ",3190 ng/mL
same,concentration at 210 min,"pig 52771, SubQ",2830 ng/mL
same,concentration at 225 min,"pig 52771, SubQ",2500 ng/mL
same,concentration at 240 min,"pig 52771, SubQ",2240 ng/mL
same,concentration at 255 min,"pig 52771, SubQ",2000 ng/mL
same,concentration at 270 min,"pig 52771, SubQ",1760 ng/mL
same,concentration at 285 min,"pig 52771, SubQ",1630 ng/mL
same,concentration at 330 min,"pig 52771, SubQ",1210 ng/mL
same,concentration at 345 min,"pig 52771, SubQ",1140 ng/mL
same,concentration at 360 min,"pig 52771, SubQ",1000 ng/mL
same,concentration at 15 min,"pig 53701, SubQ",8110 ng/mL
same,concentration at 30 min,"pig 53701, SubQ",7410 ng/mL
same,concentration at 45 min,"pig 53701, SubQ",6620 ng/mL
same,concentration at 60 min,"pig 53701, SubQ",5940 ng/mL
same,concentration at 75 min,"pig 53701, SubQ",5260 ng/mL
same,concentration at 90 min,"pig 53701, SubQ",4720 ng/mL
same,concentration at 105 min,"pig 53701, SubQ",4230 ng/mL
same,concentration at 120 min,"pig 53701, SubQ",3670 ng/mL
same,concentration at 135 min,"pig 53701, SubQ",3250 ng/mL
same,concentration at 150 min,"pig 53701, SubQ",3000 ng/mL
same,concentration at 165 min,"pig 53701, SubQ",2640 ng/mL
same,concentration at 180 min,"pig 53701, SubQ",2390 ng/mL
same,concentration at 195 min,"pig 53701, SubQ",2170 ng/mL
same,concentration at 210 min,"pig 53701, SubQ",1940 ng/mL
same,concentration at 225 min,"pig 53701, SubQ",1670 ng/mL
same,concentration at 240 min,"pig 53701, SubQ",1510 ng/mL
same,concentration at 255 min,"pig 53701, SubQ",1350 ng/mL
same,concentration at 270 min,"pig 53701, SubQ",1220 ng/mL
same,concentration at 285 min,"pig 53701, SubQ",1090 ng/mL
same,concentration at 300 min,"pig 53701, SubQ",987 ng/mL
same,concentration at 315 min,"pig 53701, SubQ",867 ng/mL
same,concentration at 330 min,"pig 53701, SubQ",800 ng/mL
same,concentration at 345 min,"pig 53701, SubQ",704 ng/mL
same,concentration at 360 min,"pig 53701, SubQ",631 ng/mL
same,SUM (plasma conc. over time),"pig 09802, SubQ","1,210,924 ng/mL*min"
same,SUM (plasma conc. over time),"pig 52771, SubQ","1,413,823 ng/mL*min"
same,SUM (plasma conc. over time),"pig 53701, SubQ","1,077,956 ng/mL*min"
